Legend:
Test in all cases: relative viability (nuclei count vs DMSO), 5 days (fraction); higher = more cells survive
Decitabine + Pemetrexed = compound: Nc1ncn([C@H]2C[C@H](O)[C@@H](CO)O2)c(=O)n1 [Decitabine] + Nc1nc2[nH]cc(CCc3ccc(C(=O)N[C@@H](CCC(=O)O)C(=O)O)cc3)c2c(=O)[nH]1 [Pemetrexed] (partner 0.2 µM)
How it was run: (§1)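 One day after seeding in 1536-well plates, lung cancer cell lines were dosed by pin tool. Dosing was either single-drug or a fixed anchor-drug dose plus five library-drug doses (not always all listed) in √10 steps. After 5 days, nuclei were stained in one fix-and-stain step and counted on 4× images, and relative viability is the nuclei count of treated wells over that of vehicle wells, given as the median of duplicate plates.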

Cediranib + Navitoclax = compound: COc1cc2c(Oc3ccc4[nH]c(C)cc4c3F)ncnc2cc1OCCCN1CCCC1 [Cediranib] + CC1(C)CCC(c2ccc(Cl)cc2)=C(CN2CCN(c3ccc(C(=O)NS(=O)(=O)c4ccc(N[C@H](CCN5CCOCC5)CSc5ccccc5)c(S(=O)(=O)C(F)(F)F)c4)cc3)CC2)C1 [Navitoclax] (partner 0.5 µM)
How it was run: as §1

Decitabine + Alpelisib = compound: Nc1ncn([C@H]2C[C@H](O)[C@@H](CO)O2)c(=O)n1 [Decitabine] + Cc1nc(NC(=O)N2CCC[C@H]2C(N)=O)sc1-c1ccnc(C(C)(C)C(F)(F)F)c1 [Alpelisib] (partner 2 µM)
How it was run: as §1

Cediranib + OSI-027 = compound: COc1cc2c(Oc3ccc4[nH]c(C)cc4c3F)ncnc2cc1OCCCN1CCCC1 [Cediranib] + COc1cccc2cc(-c3nc([C@H]4CC[C@H](C(=O)O)CC4)n4ncnc(N)c34)[nH]c12 [OSI-027] (partner 0.5 µM)
How it was run: as §1

Row | Cell Line | relative viability (Decitabine + Pemetrexed; first compound 0.04 µM) | relative viability (Decitabine + Pemetrexed; first compound 0.1265 µM) | relative viability (Decitabine + Pemetrexed; first compound 0.4 µM) | relative viability (Decitabine + Pemetrexed; first compound 1.265 µM) | relative viability (Decitabine + Pemetrexed; first compound 4 µM) | relative viability (Cediranib + Navitoclax; first compound 0.04 µM) | relative viability (Cediranib + Navitoclax; first compound 0.4 µM) | relative viability (Cediranib + Navitoclax; first compound 1.265 µM) | relative viability (Cediranib + Navitoclax; first compound 4 µM) | relative viability (Decitabine + Alpelisib; first compound 0.04 µM) | relative viability (Decitabine + Alpelisib; first compound 0.1265 µM) | relative viability (Decitabine + Alpelisib; first compound 0.4 µM) | relative viability (Decitabine + Alpelisib; first compound 1.265 µM) | relative viability (Decitabine + Alpelisib; first compound 4 µM) | relative viability (Cediranib + OSI-027; first compound 0.04 µM) | relative viability (Cediranib + OSI-027; first compound 0.1265 µM) | relative viability (Cediranib + OSI-027; first compound 0.4 µM) | relative viability (Cediranib + OSI-027; first compound 1.265 µM) | relative viability (Cediranib + OSI-027; first compound 4 µM) | relative viability (Cediranib + Navitoclax; first compound 0.1265 µM)
1 | NCI-H1395 | 0.64 | 0.685 | 0.744 | 0.474 | 0.484 | 1.23 | 1.23 | 1.13 | 1.05 | 0.821 | 0.776 | 0.786 | 0.518 | 0.631 | 0.628 | 0.751 | 0.62 | 0.615 | 0.608 | 
2 | NCI-H1437 | 0.318 | 0.276 | 0.295 | 0.235 | 0.214 | 1.14 | 1.06 | 1.07 | 1.13 | 0.787 | 0.679 | 0.464 | 0.246 | 0.215 | 0.841 | 0.992 | 0.796 | 0.851 | 1.02 | 1.17
3 | NCI-H1651 | 0.543 | 0.43 | 0.434 | 0.331 | 0.278 | 1.04 | 0.899 | 1.02 | 1.18 | 0.834 | 0.902 | 0.861 | 0.718 | 0.633 | 0.59 | 0.652 | 0.721 | 0.606 | 0.778 | 1.01
4 | NCI-H1666 | 0.874 | 0.79 | 0.712 | 0.641 | 0.504 | 0.875 | 0.989 | 1.09 | 1.1 | 0.797 | 0.753 | 0.606 | 0.489 | 0.473 | 0.9 | 0.809 | 0.891 | 0.802 | 0.805 | 1
5 | NCI-H1734 | 0.345 | 0.323 | 0.293 | 0.262 | 0.284 | 0.759 | 0.846 | 0.807 | 0.842 | 0.5 | 0.615 | 0.535 | 0.399 | 0.324 | 0.517 | 0.705 | 0.583 | 0.515 | 0.64 | 0.83
6 | NCI-H1755 | 0.477 | 0.376 | 0.406 | 0.419 | 0.365 | 1.05 | 0.974 | 0.998 | 1.07 | 0.847 | 0.858 | 0.825 | 0.511 | 0.348 | 0.601 | 0.565 | 0.689 | 0.694 | 0.81 | 1
7 | NCI-H1792 | 0.715 | 0.894 | 0.587 | 0.309 | 0.255 | 0.446 | 0.588 | 0.668 | 0.393 | 0.619 | 0.765 | 0.724 | 0.383 | 0.323 | 0.731 | 0.732 | 0.661 | 0.76 | 0.757 | 0.442
8 | NCI-H1793 | 0.692 | 0.875 | 0.511 | 0.44 | 0.303 | 0.59 | 0.461 |  | 0.46 | 0.695 | 0.565 | 0.573 | 0.433 | 0.392 | 0.271 | 0.276 | 0.245 |  | 0.301 | 0.468
9 | NCI-H1915 | 0.274 | 0.225 | 0.222 | 0.191 | 0.176 | 0.787 | 0.805 | 0.788 | 0.811 | 0.475 | 0.301 | 0.272 | 0.227 | 0.247 | 0.559 | 0.516 | 0.566 | 0.624 | 0.669 | 0.721
10 | NCI-H1944 | 0.438 | 0.448 | 0.288 | 0.228 | 0.211 | 1.08 | 0.95 | 0.981 | 1.01 | 0.874 | 0.797 | 0.725 | 0.473 | 0.435 | 0.382 | 0.513 | 0.422 | 0.39 | 0.429 | 1.11
11 | NCI-H1975 | 0.247 | 0.205 | 0.182 | 0.209 | 0.188 | 1.18 | 0.956 | 1.19 | 1.21 | 0.414 | 0.357 | 0.318 | 0.292 | 0.275 | 0.691 | 0.773 | 0.686 | 0.638 | 0.801 | 1.13
12 | NCI-H1993 | 0.542 | 0.583 | 0.607 | 0.506 | 0.403 | 1.05 | 0.981 | 0.733 | 1.09 | 0.775 | 0.725 | 0.629 | 0.699 | 0.634 | 0.421 | 0.579 | 0.548 | 0.506 | 0.545 | 0.935
13 | NCI-H2009 | 0.902 | 0.727 | 0.439 | 0.357 | 0.341 | 1.2 | 1.16 | 1.14 | 1.11 | 1 | 0.88 | 0.593 | 0.413 | 0.303 | 0.548 | 0.538 | 0.658 | 0.518 | 0.639 | 1.14
14 | NCI-H2023 | 0.14 | 0.175 | 0.144 | 0.126 | 0.115 | 0.997 | 1.01 | 0.997 | 0.988 | 0.438 | 0.461 | 0.305 | 0.214 | 0.188 | 0.342 | 0.402 | 0.374 | 0.385 | 0.415 | 1.02
15 | NCI-H2085 | 0.782 | 0.807 | 0.511 | 0.513 | 0.364 | 1.19 | 1.13 | 1.09 | 1.26 | 0.767 | 0.617 | 0.554 | 0.379 | 0.433 | 0.801 | 0.786 | 0.759 | 0.48 | 0.856 | 1.04
16 | NCI-H2087 | 0.573 | 0.49 | 0.451 | 0.291 | 0.267 | 1.07 | 1.01 | 0.984 | 1.07 | 0.683 | 0.564 | 0.487 | 0.338 | 0.36 | 0.558 | 0.742 | 0.526 | 0.425 | 0.763 | 0.914

Reference: the supplement of paper PMC10307832
